{"source": "patent US7105695B2", "about": "“Synthesis of combretastatin A-2 prodrugs” (priority 2001, dated 2006)", "key": {"mitosis": {"system": "mitosis", "conditions": "compared with the Z-isomer (1a); cited from earlier work"}, "BXPC-3": {"system": "BXPC-3", "test": "Human cancer cell line growth inhibition, pancreas BXPC-3", "format": "cell-based", "conditions": "BXPC-3 human cancer cell line"}, "MCF-7": {"system": "MCF-7", "test": "Human cancer cell line growth inhibition, breast MCF-7", "format": "cell-based", "conditions": "MCF-7 human cancer cell line"}, "SF5268": {"system": "SF5268", "test": "Human cancer cell line growth inhibition, CNS gliob SF5268", "format": "cell-based"}, "NCI-H460": {"system": "NCI-H460", "test": "Human cancer cell line growth inhibition, lung-NSC NCI-H460", "format": "cell-based"}, "KM20L2": {"system": "KM20L2", "test": "Human cancer cell line growth inhibition, colon KM20L2", "format": "cell-based"}, "DU-145": {"system": "DU-145", "test": "Human cancer cell line growth inhibition, prostate DU-145", "format": "cell-based", "conditions": "DU-145 human cancer cell line"}, "NCI 60-cell screen": {"system": "NCI 60-cell screen", "test": "NCI 60-cell screen", "format": "cell-based, human", "conditions": "mean ± SE, read-out: mean-panel GI50"}, "Cryptococcus neoformans": {"system": "Cryptococcus neoformans", "test": "Broth microdilution susceptibility assay, Cryptococcus neoformans", "format": "cell-based", "conditions": "read-out: Minimum inhibitory concentration", "excerpt": "(§1) Compounds were screened against the bacteria Stenotrophomonas maltophilia, Micrococcus luteus, Staphylococcus aureus, Escherichia coli, Enterobacter cloacae, Enterococcus faecalis, Streptococcus pneumoniae, Neisseria gonorrhoeae, and the fungi Candida albicans and Cryptococcus neoformans, according to established broth microdilution susceptibility assays (NCCLS approved standard M7-A4, 1997; NCCLS approved standard M27-A, 1997). The minimum inhibitory concentration was defined as the lowest concentration of compound that inhibited all visible growth of the test organism (optically clear). Assays were repeated on separate days."}, "Streptococcus pneumoniae": {"system": "Streptococcus pneumoniae", "test": "Broth microdilution susceptibility assay, Streptococcus pneumoniae", "format": "cell-based", "conditions": "read-out: Minimum inhibitory concentration", "excerpt": "as §1"}, "Micrococcus luteus": {"system": "Micrococcus luteus", "test": "Broth microdilution susceptibility assay, Micrococcus luteus", "format": "cell-based", "conditions": "read-out: Minimum inhibitory concentration", "excerpt": "as §1"}, "Neisseria gonorrhoeae": {"system": "Neisseria gonorrhoeae", "test": "Broth microdilution susceptibility assay, Neisseria gonorrhoeae", "format": "cell-based", "excerpt": "as §1"}, "bacteria and fungi panel": {"system": "bacteria and fungi panel", "test": "Broth microdilution screen, whole panel of bacteria and fungi", "format": "cell-based", "conditions": "among the compounds screened, Table III", "excerpt": "as §1"}, "[1]": {"conditions": "25° C."}, "physchem": {"test": "physchem", "conditions": "25 °C, water"}}, "note": "Like-named read-outs stand apart in the source and are kept apart here.", "data": [{"compound": "COc1ccc(C=Cc2cc(OC)c3c(c2)OCO3)cc1O", "note": "(single isomer, unassigned) [E-isomer of combretastatin A-2]", "values": [{"measurement": "antimitotic activity", "setting": "mitosis", "result": "considerably less antimitotic activity"}]}, {"compound": "COc1ccc(/C=C\\c2cc(OC)c3c(c2)OCO3)cc1O", "note": "[Compound 1a, Combretastatin A-2]", "values": [{"measurement": "GI50", "setting": "BXPC-3", "result": 0.014, "unit": "µg/mL"}, {"measurement": "GI50", "setting": "MCF-7; MCF7", "result": 0.0042, "unit": "µg/mL"}, {"measurement": "GI50", "setting": "SF5268; read-out: GI50 CNSGliob SF5268", "result": 0.0083, "unit": "µg/mL"}, {"measurement": "GI50", "setting": "NCI-H460", "result": 0.043, "unit": "µg/mL"}, {"measurement": "GI50", "setting": "KM20L2; KM-20L2", "result": 0.47, "unit": "µg/mL"}, {"measurement": "GI50", "setting": "DU-145; read-out: GI50 Prostrate DU-145", "result": 0.0054, "unit": "µg/mL"}, {"measurement": "GI50", "setting": "NCI 60-cell screen; Homo sapiens", "result": "83.3 ± 17.3", "unit": "nM"}, {"measurement": "MIC", "setting": "Cryptococcus neoformans", "result": 64, "unit": "µg/mL"}, {"measurement": "MIC", "setting": "Streptococcus pneumoniae", "result": 64, "unit": "µg/mL"}, {"measurement": "MIC", "setting": "Micrococcus luteus", "result": 64, "unit": "µg/mL"}, {"measurement": "MIC", "setting": "Neisseria gonorrhoeae; read-out: Minimum inhibitory concentration", "result": 32, "unit": "µg/mL"}, {"measurement": "antimicrobial spectrum", "setting": "bacteria and fungi panel", "result": "broadest antimicrobial spectra"}, {"measurement": "Solubility in water", "setting": "[1]", "result": "<1000", "unit": "µg/mL"}, {"measurement": "solubility", "setting": "physchem", "result": "< 1000", "unit": "µg/mL"}]}, {"compound": "Sodium combretastatin A-2 3′-O-phosphate [Compound 2a]", "values": [{"measurement": "GI50 Pancreas BXPC-3", "setting": "BXPC-3", "result": 2.1, "unit": "µg/mL"}, {"measurement": "GI50 Breast MCF-7", "setting": "MCF-7", "result": 0.045, "unit": "µg/mL"}, {"measurement": "GI50 CNSGliob SF5268", "setting": "SF5268", "result": 0.042, "unit": "µg/mL"}, {"measurement": "GI50 Lung-NSC NCI-H460", "setting": "NCI-H460", "result": 0.41, "unit": "µg/mL"}, {"measurement": "GI50 Colon KM20L2", "setting": "KM20L2", "result": 3.8, "unit": "µg/mL"}, {"measurement": "GI50 Prostrate DU-145", "setting": "DU-145", "result": 0.053, "unit": "µg/mL"}, {"measurement": "GI50", "setting": "NCI 60-cell screen", "result": "165 ± 30.7", "unit": "nM"}, {"measurement": "Minimum inhibitory concentration", "setting": "Neisseria gonorrhoeae", "result": 8, "unit": "µg/mL"}, {"measurement": "Solubility in water", "setting": "[1]", "result": 18000, "unit": "µg/mL"}]}]}
